# Columns and labels:
# [1] = system: SLα mRNA expression in grass carp pituitary cells; experiment: SLα mRNA expression (qPCR) in grass carp pituitary cells; format: cell-based, grass carp (Ctenopharyngodon idellus); conditions: for SLα mRNA levels, activator alone: static incubation for 24 h, 8Br.cAMP 10 µM, forskolin 1 µM, Dic8 100 µM, TPA 10 µM, A23187 100 nM, BayK8644 100 nM (Figure 5D); for effect on SLα mRNA expression induced by IGF-I or senktide treatment alone: senktide 1 µM, IGF-I 100 nM; for effect on SLα mRNA expression induced by IGF-I or senktide treatment alone / effect on the synergistic effect on SLα mRNA expression caused by IGF-I and senktide cotreatment: inhibitors 10 µM, 2-APB 100 µM, calmidazolium 1 µM (Figure 5A–C); for effect on the synergistic effect on SLα mRNA expression caused by IGF-I and senktide cotreatment: senktide (1 µM) + IGF-I (100 nM); for enhancement of the stimulatory effects of TAC3 gene products on SLα mRNA expression: IGF-I/-II cotreatment
# Protocol: (§1) Grass carp pituitary cells prepared by the trypsin/DNase digestion method were seeded in 24-well plates at ~2.5 × 10^6 cells/mL/well. On the following day, drug treatment was initiated by replacing the old medium with a testing medium with the appropriate levels of test substances, and the cells were then allowed to incubate at 28 °C for the duration as indicated. After drug treatment, total RNA was extracted from individual wells and reversely transcribed as above. The RT samples obtained were subjected to qPCR using a LightCycler SYBR Green I Kit (Roche, Stockholm, Sweden) with the primers mentioned above. In these studies, serial dilutions of plasmid DNA containing the ORF of SLα (GeneBank no.: EF372074) and TACR3 (GenBank no: JQ254913) cDNA were used as the standards for data calibration. Parallel real-time PCR measurement of β-actin was also conducted in individual experiments to serve as the internal control.
# (§2) For real-time PCR of SLα and TACR3 mRNA measurement, standard curves with a dynamic range of ≥10^5 and correlation coefficient of ≥0.95 were used for data calibration with the RotorGene-Q software 1.7 (Qiagen) under unsupervised mode. SLα and TACR3 mRNA data were normalized with the β-actin transcript level and then were transformed as a percentage of the mean value in the control group without drug treatment (as “%Ctrl”). For the calcium bioluminescence signals and raw data obtained from luciferase reporter assays, the luminescence signals or luciferase activity was expressed as “relative luminescence unit (RLU)” registered by the fluorescence plate reader. For individual samples of the luciferase reporter assay, the firefly luciferase activity detected was routinely normalized against Renilla Luciferase activity expressed in the same well and expressed as the luciferase activity ration (as “Luc Ratio”). For receptor binding assay, specific binding of FAM-NKBa was measured in terms of “Arbitrary Fluorescence Unit (AFU)”. The six replicates presented (expressed as Mean ± SEM) were pooled results from two individual experiments prior to statistical analysis; all data were tested for normality of distribution using the Shapiro–Wilk normality test. Then, one-way ANOVA and two-way ANOVA were used to test the significant difference according to different experiment groups. The differences between groups were considered as significant at P < 0.05 (“*”) or highly significant at P < 0.01 (“**”).
# [2] = system: TACR3 mRNA expression in grass carp pituitary cells; experiment: TACR3 mRNA expression (qPCR) in grass carp pituitary cells; format: cell-based, grass carp (Ctenopharyngodon idellus); conditions: for TACR3 mRNA expression, time course: 100 nM, from 1 h to 24 h (Figure 3B); for TACR3 mRNA expression, dose-dependence: 24-h incubation, 0.01–100 nM (Figure 3C); for effect on IGF-I-induced TACR3 mRNA expression: 24 h cotreatment with IGF-I (10 nM), inhibitors 10 µM, wortmannin 1 µM, rapamycin 20 nM
# Protocol: as §1, §2
# [3] = biological target: T1, grass carp TACR3 (Ctenopharyngodon idella, UniProt A0A075BDW2); experiment: Fluorescence-based receptor binding assay, displacement of FAM-NKBa tracer; set-up: species or system grass carp (Ctenopharyngodon idellus); conditions: HEK-293 cells with stable expression of grass carp TACR3, 30 min pretreatment with competitor, then FAM-NKBa (10 nM) 30 min, 37 °C; bound given in μM; read-out: IC50 for displacing FAM-NKBa binding
# T1 sequence (A0A075BDW2 1-395): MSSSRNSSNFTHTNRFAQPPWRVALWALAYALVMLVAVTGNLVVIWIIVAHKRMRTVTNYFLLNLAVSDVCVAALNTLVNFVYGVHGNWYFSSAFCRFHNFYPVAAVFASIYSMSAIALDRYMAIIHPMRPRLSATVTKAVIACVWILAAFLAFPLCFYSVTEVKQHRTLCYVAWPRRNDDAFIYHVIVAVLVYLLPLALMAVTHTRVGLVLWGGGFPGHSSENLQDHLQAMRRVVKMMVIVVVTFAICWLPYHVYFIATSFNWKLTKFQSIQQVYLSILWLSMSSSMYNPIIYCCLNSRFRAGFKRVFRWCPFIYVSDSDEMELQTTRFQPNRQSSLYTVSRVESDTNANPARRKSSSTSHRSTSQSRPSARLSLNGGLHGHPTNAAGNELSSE
# Protocol: The cells were then harvested and seeded onto 24-well plates at a density of 0.1 million/well and incubated at 37 °C under 5% CO2 for 24 h prior to the experiments. On the day of the experiments, the culture medium was aspirated and replaced with 500 μL serum-free DMEM with or without appropriated levels of unlabeled competitors. Cells were then allowed to incubate for 30 min at 37 °C under 5% CO2 and saturated humidity. FAM Carboxyfluorescein-labeled NKBa, namely FAM-NKBa, was used as a tracer for receptor binding experiments, and a 50-μL volume of FAM-NKBa (10 nM) was added into individual wells. After further incubation for 30 min at 37 °C, the cells were washed twice and with 500 μl PBS each to remove unbound ligands. […] The supernatant from individual wells was then collected in a 96-wells black view plate, and fluorescence signals indicative of FAM-NKBa binding were registered using FluoStar OPTIMA with excitation at 490 nm and emission at 520 nm.
# For receptor binding assay, specific binding of FAM-NKBa was measured in terms of “Arbitrary Fluorescence Unit (AFU)”. The six replicates presented (expressed as Mean ± SEM) were pooled results from two individual experiments prior to statistical analysis; all data were tested for normality of distribution using the Shapiro–Wilk normality test. […]
compound,measurement,setting,value
C=C[C@@]1(C)CC(=O)[C@]2(O)[C@@]3(C)[C@@H](O)CCC(C)(C)[C@@H]3[C@H](O)[C@H](OC(C)=O)[C@@]2(C)O1 [forskolin],"SLα mRNA levels, activator alone",[1],effective in elevating SLα mRNA levels
CCCCCCCC(=O)OCC(CO)OC(=O)CCCCCCC (stereo not drawn) [Dic8],"SLα mRNA levels, activator alone",[1],effective in elevating SLα mRNA levels
NCCOB(c1ccccc1)c1ccccc1 [2-APB],effect on SLα mRNA expression induced by IGF-I or senktide treatment alone,[1],attenuated
same,effect on the synergistic effect on SLα mRNA expression caused by IGF-I and senktide cotreatment,[1],notably suppressed
Nc1ncnc2c1nc(Br)n2[C@@H]1O[C@@H]2COP(=O)(O)O[C@H]2[C@H]1O [8Br.cAMP],"SLα mRNA levels, activator alone",[1],effective in elevating SLα mRNA levels
"IGF-I: Human insulin-like growth factor I, purchased from Sigma","TACR3 mRNA expression, time course",[2],significantly stimulate TACR3 mRNA expression
same,"TACR3 mRNA expression, dose-dependence",[2],trigger TACR3 mRNA expression in a concentration-related fashion
same,enhancement of the stimulatory effects of TAC3 gene products on SLα mRNA expression,[1],up to 8 fold increase
same,"SLα mRNA levels, treatment alone, time course","[1]; NKBRPa 1 µM, IGF-I 100 nM (Figure 4A)",induce SLα mRNA levels
same,NKBRPa-induced SLα transcript level enhanced by IGF-I cotreatment,"[1]; NKBRPa (1 µM) + IGF-I (100 nM), especially after 12–24 h",up to 10 folds basal
CN([C@@H](Cc1ccc(OS(=O)(=O)c2cccc3cnccc23)cc1)C(=O)N1CCN(c2ccccc2)CC1)S(=O)(=O)c1cccc2cnccc12 [KN62],effect on SLα mRNA expression induced by IGF-I or senktide treatment alone,[1],attenuated
same,effect on the synergistic effect on SLα mRNA expression caused by IGF-I and senktide cotreatment,[1],notably suppressed
COc1cc([C@@H]2c3cc4c(cc3[C@H](O)[C@H]3COC(=O)[C@@H]23)OCO4)cc(OC)c1OC [PPP],effect on IGF-I-induced TACR3 mRNA expression,[2],partially inhibited
CCCCCCCCCCCCCC(=O)O[C@@H]1[C@@H](C)[C@@]2(O)[C@@H](C=C(CO)C[C@]3(O)C(=O)C(C)=C[C@@H]23)[C@@H]2C(C)(C)[C@]12OC(C)=O [TPA],"SLα mRNA levels, activator alone",[1],effective in elevating SLα mRNA levels
COc1ccc2c(c1)CC[C@@H]1[C@@H]2CC[C@]2(C)[C@@H](NCCCCCCN3C(=O)C=CC3=O)CC[C@@H]12 [U73122],effect on SLα mRNA expression induced by IGF-I or senktide treatment alone,[1],attenuated
same,effect on the synergistic effect on SLα mRNA expression caused by IGF-I and senktide cotreatment,[1],notably suppressed
"insulin: Human insulin, purchased from Sigma","TACR3 mRNA expression, dose-dependence",[2],not mimicked
O=P(O)(O)C(O)c1ccc2ccccc2c1 (stereo not drawn) [HNMPA],effect on IGF-I-induced TACR3 mRNA expression,[2],not effective
COC[C@H]1OC(=O)c2coc3c2[C@@]1(C)C1=C(C3=O)[C@@H]2CCC(=O)[C@@]2(C)C[C@H]1OC(C)=O [wortmannin],effect on IGF-I-induced TACR3 mRNA expression,[2],notably suppressed
CNc1ccc2oc(C[C@H]3O[C@@]4(CC[C@H]3C)O[C@H]([C@H](C)C(=O)c3ccc[nH]3)[C@H](C)C[C@H]4C)nc2c1C(=O)O [A23187],"SLα mRNA levels, activator alone",[1],effective in elevating SLα mRNA levels
O=S(=O)(NCCNC/C=C/c1ccc(Br)cc1)c1cccc2cnccc12 [H89],effect on SLα mRNA expression induced by IGF-I or senktide treatment alone,[1],attenuated
same,effect on the synergistic effect on SLα mRNA expression caused by IGF-I and senktide cotreatment,[1],notably suppressed
CN(C)CCCn1cc(C2=C(c3c[nH]c4ccccc34)C(=O)NC2=O)c2ccccc21 [GF109203X],effect on SLα mRNA expression induced by IGF-I or senktide treatment alone,[1],attenuated
same,effect on the synergistic effect on SLα mRNA expression caused by IGF-I and senktide cotreatment,[1],notably suppressed
Clc1ccc(C(c2ccc(Cl)cc2)n2cc[n+](CC(OCc3ccc(Cl)cc3Cl)c3ccc(Cl)cc3Cl)c2)cc1 (stereo not drawn) [calmidazolium],effect on SLα mRNA expression induced by IGF-I or senktide treatment alone,[1],attenuated
same,effect on the synergistic effect on SLα mRNA expression caused by IGF-I and senktide cotreatment,[1],notably suppressed
CC[C@H](NC(=O)c1c(C)c(-c2ccccc2)nc2ccccc12)c1ccccc1 [SB222200],effect on the potentiating effect induced by IGF-I + NKBRPa on SLα transcript expression,"[1]; antagonist 10 µM, IGF-I (100 nM) + NKBRPa (1 µM) (Figure 4F)",markedly reduced
same,effect on IGF-I- or NKBRPa-induced SLα transcript expression,"[1]; antagonist 10 µM, NKBRPa 1 µM, IGF-I 100 nM (Figure 4F)",suppress
Cl.c1ccc(C2CCCC2NC2=NCCCCCCCCCCC2)cc1 (stereo not drawn) [MDL12330A],effect on SLα mRNA expression induced by IGF-I or senktide treatment alone,[1],attenuated
same,effect on the synergistic effect on SLα mRNA expression caused by IGF-I and senktide cotreatment,[1],notably suppressed
"IGF-II: Human insulin-like growth factor II, purchased from Sigma","TACR3 mRNA expression, time course",[2],significantly stimulate TACR3 mRNA expression
same,"TACR3 mRNA expression, dose-dependence",[2],trigger TACR3 mRNA expression in a concentration-related fashion
same,enhancement of the stimulatory effects of TAC3 gene products on SLα mRNA expression,[1],up to 8 fold increase
"GR64349: TACR2-specific agonist (NK2R agonist, Tocris)",IC50,[3],> 10 µM
CO[C@H]1C[C@@H]2CC[C@@H](C)[C@@](O)(O2)C(=O)C(=O)N2CCCC[C@H]2C(=O)O[C@H]([C@H](C)C[C@@H]2CC[C@@H](O)[C@H](OC)C2)CC(=O)[C@H](C)/C=C(\C)[C@@H](O)[C@@H](OC)C(=O)[C@H](C)C[C@H](C)/C=C/C=C/C=C/1C [rapamycin],effect on IGF-I-induced TACR3 mRNA expression,[2],notably suppressed
COC(=O)C1=C(C)NC(C)=C(C(=O)OC)C1c1ccccc1[N+](=O)[O-] [nifedipine],effect on SLα mRNA expression induced by IGF-I or senktide treatment alone,[1],attenuated
same,effect on the synergistic effect on SLα mRNA expression caused by IGF-I and senktide cotreatment,[1],notably suppressed
COc1ccc(Cl)cc1NC(=O)Nc1cc(C)nc2ccccc12 [PQ401],effect on IGF-I-induced TACR3 mRNA expression,[2],totally abolished
COC(=O)C1=C(C)NC(C)=C([N+](=O)[O-])C1c1ccccc1C(F)(F)F (stereo not drawn) [BayK8644],"SLα mRNA levels, activator alone",[1],effective in elevating SLα mRNA levels
